Assay results from patent US9771359B1, “Substituted oxazole- and thiazole-based carboxamide and urea derivatives as vanilloid receptor ligands II” (MEDIFRON DBT INC., priority 2014, dated 2017).
Structures can show the parent of a compound that is named as a salt.

target: vanilloid receptor 1 (VR1/TRPV1) (Homo sapiens (Human), UniProt Q8NER1); assay: FLIPR assay, Ca2+ influx in CHO K1 cells transfected with the human VR1 gene; assay type: cell-based; conditions: CHO-K1; @5 μM test compound; capsaicin 100 nM; read-out: inhibition (as a percentage), Cap
Procedure: Furthermore, preference may be given to compounds according to the first aspect of the invention that cause a 50% displacement of capsaicin, which is present at a concentration of 100 nM, in a FLIPR assay with CHO K1 cells which were transfected with the human VR1 gene at a concentration of less than 2 000 nM, preferably less than 1 000 nM, particularly preferably less than 300 nM, most particularly preferably less than 100 nM, even more preferably less than 75 nM, additionally preferably less than 50 nM, most preferably less than 10 nM. In the process, the Ca^2+ influx is quantified in the FLIPR assay with the aid of a Ca^2+-sensitive dye (type Fluo-4, Molecular Probes Europe BV, Leiden, the Netherlands) in a fluorescent imaging plate reader (FLIPR, Molecular Devices, Sunnyvale, USA), as described hereinafter.
The FLIPR protocol consists of 2 substance additions during a kinetic measurement. First the compounds to be tested (5 μM) are pipetted onto the cells and the Ca^2+ influx is determined in comparison to the control (capsaicin 10 μM), providing the result as % activation and representing the compound-alone effect (calculation at peak signal related to baseline). […] After 5 min incubation, the Ca^2+ influx is related to an injection of 100 nM of capsaicin and thereby the antagonistic effect of the test compounds detected.
Desensitising agonists and antagonists lead to suppression of the Ca^2+ influx. The % inhibition is calculated compared to the maximum achievable inhibition with 10 μM of capsaicin. Triple analyses (n=3) are carried out and repeated in at least 3 independent experiments.
Starting from the percentage displacement caused by different concentrations of the compounds to be tested of general formula I, IC50 inhibitory concentrations which cause a 50-% displacement of capsaicin were calculated. Ki values for the test substances were obtained by conversion by means of the Cheng-Prusoff equation (Cheng, Prusoff; Biochem. Pharmacol. 22, 3099-3108, 1973).
Chinese hamster ovary cells (CHO K1 cells, European Collection of Cell Cultures (ECACC) United Kingdom) are stably transfected with the VR1 gene. For functional testing, these cells are plated out on poly-D-lysine-coated black 96-well plates having a clear base (BD Biosciences, Heidelberg, Germany) at a density of 25,000 cells/well. The cells are incubated overnight at 37° C. and 5% CO2 in a culture medium (Ham's F12 nutrient mixture, 10% by volume of FCS (foetal calf serum), 18 μg/ml of L-proline). The next day the cells are incubated with Fluo-4 (Fluo-4 2 μM, 0.01% by volume of Pluronic F127, Molecular Probes in HBSS (Hank's buffered saline solution), Gibco Invitrogen GmbH, Karlsruhe, Germany) for 30 min at 37° C. Subsequently, the plates are washed three times with HBSS buffer and after further incubation for 15 min at RT used for Ca^2+ measurement in a FLIPR assay. The Ca^2+-dependent fluorescence is measured before and after the addition of the substances to be tested (λex wavelength=488 nm, λem=540 nm). Quantification is carried out by measuring the highest fluorescence intensity (FC, fluorescence counts) over time.

Sequence of vanilloid receptor 1 (VR1/TRPV1) (Q8NER1 whole entry): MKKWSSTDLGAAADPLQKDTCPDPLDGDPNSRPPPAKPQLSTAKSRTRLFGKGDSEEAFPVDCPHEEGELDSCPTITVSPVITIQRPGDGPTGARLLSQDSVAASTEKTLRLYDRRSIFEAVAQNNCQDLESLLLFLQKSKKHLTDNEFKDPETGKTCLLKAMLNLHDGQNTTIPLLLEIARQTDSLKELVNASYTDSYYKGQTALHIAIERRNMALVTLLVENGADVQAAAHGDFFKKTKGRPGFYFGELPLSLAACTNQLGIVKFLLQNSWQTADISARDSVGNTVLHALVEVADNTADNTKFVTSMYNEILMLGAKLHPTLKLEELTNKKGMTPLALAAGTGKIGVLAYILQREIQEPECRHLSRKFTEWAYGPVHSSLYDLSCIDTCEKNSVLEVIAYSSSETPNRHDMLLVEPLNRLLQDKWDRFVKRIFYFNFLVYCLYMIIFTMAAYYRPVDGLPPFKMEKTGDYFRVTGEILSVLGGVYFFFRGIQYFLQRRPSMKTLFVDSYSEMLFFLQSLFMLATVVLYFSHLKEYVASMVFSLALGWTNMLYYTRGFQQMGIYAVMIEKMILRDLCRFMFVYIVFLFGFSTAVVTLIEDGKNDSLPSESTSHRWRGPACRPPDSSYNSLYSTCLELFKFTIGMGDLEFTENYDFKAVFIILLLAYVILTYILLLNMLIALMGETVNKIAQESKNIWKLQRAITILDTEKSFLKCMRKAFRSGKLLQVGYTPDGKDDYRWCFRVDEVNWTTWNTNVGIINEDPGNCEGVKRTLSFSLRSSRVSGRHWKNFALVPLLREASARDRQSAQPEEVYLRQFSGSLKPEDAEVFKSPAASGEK

| inhibition at 5 µM | Structure (SMILES) |
| --- | --- |
| 41% | CS(=O)(=O)CCc1ccc(NC(=O)NCc2oc(C(F)(F)F)nc2-c2cccc(Cl)c2)cn1 [EX-30, 1-((4-(3-chlorophenyl)-2-(trifluoromethyl)oxazol-5-yl)methyl)-3-(6-(2-(methylsulfonyl)ethyl)pyridin-3-yl)urea] |
| 46% | O=C(NCc1oc(C(F)(F)F)nc1-c1cccc(Cl)c1)Nc1ccc(CCO)nc1 [EX-37, 1-((4-(3-chlorophenyl)-2-(trifluoromethyl)oxazol-5-yl)methyl)-3-(6-(2-hydroxyethyl)pyridin-3-yl)urea] |
| 55% | CC(C)(C)c1nc(-c2cccc(Cl)c2)c(CNC(=O)Nc2ccc(COCCO)nc2)o1 [EX-46, 1-((2-(tert-butyl)-4-(3-chlorophenyl)oxazol-5-yl)methyl)-3-(6-((2-hydroxyethoxy)methyl)pyridin-3-yl)urea dihydrochloride] |
| 31% | O=C(NCc1oc(C(F)(F)F)nc1-c1cccc(Cl)c1)Nc1ccc(COCCO)nc1 [EX-48, 1-((4-(3-chlorophenyl)-2-(trifluoromethyl)oxazol-5-yl)methyl)-3-(6-((2-hydroxyethoxy)methyl)pyridin-3-yl)urea dihydrochloride] |

same assay, conditions: compound 5 μM, % activation compared with control capsaicin 10 μM

| Structure (SMILES) | compound-alone effect on Ca2+ influx (agonist / partial agonist) |
| --- | --- |
| CC(C)(C)c1nc(-c2cccc(Cl)c2)c(CNC(=O)Nc2ccc(CO)nc2)o1 [EX-25, 1-((2-(tert-butyl)-4-(3-chlorophenyl)oxazol-5-yl)methyl)-3-(6-(hydroxymethyl)pyridin-3-yl)urea] | pAG (A Ca^2+ influx of 10%-60% reveals a partial agonist (pAG)) |
| CC(C)(C)c1nc(-c2cccc(Cl)c2)c(CNC(=O)Nc2ccc(CO)nc2)s1 [EX-26, 1-((2-(tert-butyl)-4-(3-chlorophenyl)thiazol-5-yl)methyl)-3-(6-(hydroxymethyl)pyridin-3-yl)urea] | pAG (A Ca^2+ influx of 10%-60% reveals a partial agonist (pAG)) |
| O=C(NCc1sc(C(F)(F)F)nc1-c1cccc(Cl)c1)Nc1ccc(CCO)nc1 [EX-34, 1-((4-(3-chlorophenyl)-2-(trifluoromethyl)thiazol-5-yl)methyl)-3-(6-(2-hydroxyethyl)pyridin-3-yl)urea] | pAG (A Ca^2+ influx of 10%-60% reveals a partial agonist (pAG)) |
| CC(C)(C)c1nc(-c2cccc(Cl)c2)c(CNC(=O)Nc2ccc(CCO)nc2)s1 [EX-36, 1-((2-(tert-butyl)-4-(3-chlorophenyl)thiazol-5-yl)methyl)-3-(6-(2-hydroxyethyl)pyridin-3-yl)urea] | AG (a Ca^2+ influx of >60% relates to a pure agonist (AG)) |
| CC(C)(C)c1nc(-c2cccc(Cl)c2)c(CNC(=O)Nc2ccc3c(c2)OCO3)s1 [EX-50, 1-(benzo[d][1,3]dioxol-5-yl)-3-((2-(tert-butyl)-4-(3-chlorophenyl)thiazol-5-yl)methyl)urea] | pAG (A Ca^2+ influx of 10%-60% reveals a partial agonist (pAG)) |

same assay, conditions: displacement of capsaicin 100 nM; Ki from IC50 by Cheng-Prusoff equation; read-out: (f) Ki (human) [nM] Cap

| Structure (SMILES) | Ki |
| --- | --- |
| CC(C(=O)NCc1oc(C(F)(F)F)nc1-c1cccc(Cl)c1)c1ccc(CNS(N)(=O)=O)c(F)c1 (stereo not drawn) [EX-23, N-((4-(3-chlorophenyl)-2-(trifluoromethyl)oxazol-5-yl)methyl)-2-(3-fluoro-4-((sulfamoylamino)methyl)phenyl)propanamide] | 4.7 nM |
| CC(C(=O)NCc1sc(C(F)(F)F)nc1-c1cccc(Cl)c1)c1ccc(CNS(N)(=O)=O)c(F)c1 (stereo not drawn) [EX-24, N-((4-(3-chlorophenyl)-2-(trifluoromethyl)thiazol-5-yl)methyl)-2-(3-fluoro-4-((sulfamoylamino)methyl)phenyl)propanamide] | 2.35 nM |
| CC(C)(C)c1nc(-c2cccc(Cl)c2)c(CNC(=O)Nc2ccc(CO)nc2)o1 [EX-25, 1-((2-(tert-butyl)-4-(3-chlorophenyl)oxazol-5-yl)methyl)-3-(6-(hydroxymethyl)pyridin-3-yl)urea] | 73.1 nM |
| CS(=O)(=O)CCc1ccc(NC(=O)NCc2sc(C(F)(F)F)nc2-c2cccc(Cl)c2)cn1 [EX-31, 1-((4-(3-chlorophenyl)-2-(trifluoromethyl)thiazol-5-yl)methyl)-3-(6-(2-(methylsulfonyl)ethyl)pyridin-3-yl)urea] | 48.8 nM |
| CC(C)(C)c1nc(-c2cccc(Cl)c2)c(CNC(=O)Nc2ccc(CNS(C)(=O)=O)cc2)o1 [EX-38, N-(4-(3-((2-(tert-butyl)-4-(3-chlorophenyl)oxazol-5-yl)methyl)ureido)benzyl)methanesulfonamide] | 52.6 nM |
| CC(C)(C)c1nc(-c2cccc(F)c2)c(CNC(=O)Nc2ccc(CNS(C)(=O)=O)cc2)s1 [EX-39, N-(4-(3-((2-(tert-butyl)-4-(3-fluorophenyl)thiazol-5-yl)methyl)ureido)benzyl)methanesulfonamide] | 17.6 nM |
| O=C(NCc1oc(C(F)(F)F)nc1-c1cccc(Cl)c1)Nc1ccc(OCCO)nc1 [EX-42, 1-((4-(3-chlorophenyl)-2-(trifluoromethyl)oxazol-5-yl)methyl)-3-(6-(2-hydroxyethoxy)pyridin-3-yl)urea] | 103 nM |

Further lines, results first:

| Ki | Structure (SMILES) |
| --- | --- |
| 10.2 nM | CC(C)(C)c1nc(-c2cccc(Cl)c2)c(CNC(=O)Nc2ccc(CO)nc2)s1 [EX-26, 1-((2-(tert-butyl)-4-(3-chlorophenyl)thiazol-5-yl)methyl)-3-(6-(hydroxymethyl)pyridin-3-yl)urea] |
| 62.5 nM | O=C(NCc1oc(C(F)(F)F)nc1-c1cccc(Cl)c1)Nc1ccc(CO)nc1 [EX-27, 1-((4-(3-chlorophenyl)-2-(trifluoromethyl)oxazol-5-yl)methyl)-3-(6-(hydroxymethyl)pyridin-3-yl)urea] |
| 19.4 nM | O=C(NCc1sc(C(F)(F)F)nc1-c1cccc(Cl)c1)Nc1ccc(CO)nc1 [EX-28, 1-((4-(3-chlorophenyl)-2-(trifluoromethyl)thiazol-5-yl)methyl)-3-(6-(hydroxymethyl)pyridin-3-yl)urea] |
| 60.8 nM | O=C(NCc1oc(C(F)(F)F)nc1-c1cccc(Cl)c1)Nc1ccc(N2CC(O)C2)nc1 [EX-32, 1-((4-(3-chlorophenyl)-2-(trifluoromethyl)oxazol-5-yl)methyl)-3-(6-(3-hydroxyazetidin-1-yl)pyridin-3-yl)urea] |
| 24.6 nM | O=C(NCc1sc(C(F)(F)F)nc1-c1cccc(Cl)c1)Nc1ccc(N2CC(O)C2)nc1 [EX-33, 1-((4-(3-chlorophenyl)-2-(trifluoromethyl)thiazol-5-yl)methyl)-3-(6-(3-hydroxyazetidin-1-yl)pyridin-3-yl)urea] |
| 30.2 nM | O=C(NCc1sc(C(F)(F)F)nc1-c1cccc(Cl)c1)Nc1ccc(CCO)nc1 [EX-34, 1-((4-(3-chlorophenyl)-2-(trifluoromethyl)thiazol-5-yl)methyl)-3-(6-(2-hydroxyethyl)pyridin-3-yl)urea] |
| 78.4 nM | CC(C)(C)c1nc(-c2cccc(Cl)c2)c(CNC(=O)Nc2ccc(CCO)nc2)o1 [EX-35, 1-((2-(tert-butyl)-4-(3-chlorophenyl)oxazol-5-yl)methyl)-3-(6-(2-hydroxyethyl)pyridin-3-yl)urea] |
| 43.6 nM | CC(C)(C)c1nc(-c2cccc(Cl)c2)c(CNC(=O)Nc2ccc(OCCO)nc2)o1 [EX-40, 1-((2-(tert-butyl)-4-(3-chlorophenyl)oxazol-5-yl)methyl)-3-(6-(2-hydroxyethoxy)pyridin-3-yl)urea] |
| 27.5 nM | CC(C)(C)c1nc(-c2cccc(Cl)c2)c(CNC(=O)Nc2ccc(OCCO)nc2)s1 [EX-41, 1-((2-(tert-butyl)-4-(3-chlorophenyl)thiazol-5-yl)methyl)-3-(6-(2-hydroxyethoxy)pyridin-3-yl)urea] |
| 29.8 nM | O=C(NCc1sc(C(F)(F)F)nc1-c1cccc(Cl)c1)Nc1ccc(OCCO)nc1 [EX-43, 1-((4-(3-chlorophenyl)-2-(trifluoromethyl)thiazol-5-yl)methyl)-3-(6-(2-hydroxyethoxy)pyridin-3-yl)urea] |
| 29.9 nM | CC(C)(C)c1nc(CNC(=O)Nc2ccc(CNS(N)(=O)=O)cc2)c(-c2cccc(Cl)c2)o1 [EX-44, N-((5-(3-chlorophenyl)-2-(tertbutyl)oxazol-4-yl)methyl)-N′-(4-((sulfamoylamino)methyl)phenyl)urea] |
| 33.3 nM | CC(C)(C)c1nc(-c2cccc(Cl)c2)c(CNC(=O)Nc2ccc(COCCO)nc2)s1 [EX-47, 1-((2-(tert-butyl)-4-(3-chlorophenyl)thiazol-5-yl)methyl)-3-(6-((2-hydroxyethoxy)-methyl)pyridin-3-yl)urea dihydrochloride] |
| 35 nM | O=C(NCc1sc(C(F)(F)F)nc1-c1cccc(Cl)c1)Nc1ccc(COCCO)nc1 [EX-49, 1-((4-(3-chlorophenyl)-2-(trifluoromethyl)thiazol-5-yl)methyl)-3-(6-((2-hydroxyethoxy)methyl)pyridin-3-yl)urea dihydrochloride] |
| 5.6 nM | CC(C)(C)c1nc(-c2cccc(Cl)c2)c(CNC(=O)Nc2ccc3c(c2)OCO3)s1 [EX-50, 1-(benzo[d][1,3]dioxol-5-yl)-3-((2-(tert-butyl)-4-(3-chlorophenyl)thiazol-5-yl)methyl)urea] |
